In brackets after ≈: the same amount, converted by molar mass.
Experiments:
Test in all cases: ≥ marks a high value that may be exact or a test limit, other limits are often not marked, values filed in µg/mL are converted to µM
[1] = test system: Candida albicans ATCC 10231
[2] = test system: Cryptococcus neoformans ATCC 32045
[3] = test system: Escherichia coli ATCC 2592
[4] = test system: Pseudomonas aeruginosa ATCC 10145
[5] = test system: Staphylococcus aureus ATCC 33591
[6] = test system: Escherichia coli ATCC 25922
Escherichia coli K88 = test system: Escherichia coli K88
[7] = test system: Escherichia coli O157:H7 CICC 21530
[8] = test system: Lacticaseibacillus rhamnosus 1.0911
[9] = test system: Lacticaseibacillus rhamnosus 1.0936
[10] = test system: Lacticaseibacillus rhamnosus 1.9021
[11] = test system: Lacticaseibacillus rhamnosus 8014
[12] = test system: Pseudomonas aeruginosa ATCC 27853
[13] = test system: Pseudomonas aeruginosa PAO1
[14] = test system: Salmonella enterica subsp. enterica serovar Choleraesuis CVCC 503
[15] = test system: Salmonella enterica subsp. enterica serovar Pullorum C79-13
[16] = test system: Salmonella enterica subsp. enterica serovar Typhimurium ATCC 14028
[17] = test system: Staphylococcus aureus ATCC 29213
[18] = test system: Staphylococcus aureus ATCC 43300
[19] = test system: Staphylococcus epidermidis ATCC 12228
[20] = test system: Streptococcus agalactiae BNCC 185941
Escherichia coli UB1005 = test system: Escherichia coli UB1005
[21] = test system: Pseudomonas aeruginosa H187
[22] = test system: Bacillus amyloliquefaciens ATCC 23842
[23] = test system: Bacillus cereus ATCC 14579
[24] = test system: Bacillus licheniformis ATCC 14580
[25] = test system: Bacillus subtilis ATCC 6051
[26] = test system: Enterococcus faecalis 1F-1
[27] = test system: Enterococcus faecium 5F-10
[28] = test system: Proteus mirabilis ATCC 35659
[29] = test system: Salmonella enterica ATCC H9812
[30] = test system: Bacillus cereus CMCC 6303
[31] = test system: Cronobacter sakazakii ATCC 29544
[32] = test system: Listeria monocytogenes CMCC 54004
[33] = test system: Salmonella enterica subsp. enterica CMCC 47020
[34] = test system: Salmonella enterica subsp. enterica serovar Typhi CMCC 50071
[35] = test system: Salmonella enterica subsp. enterica serovar Typhimurium C77-31
[36] = test system: Staphylococcus aureus ATCC 25923
[37] = test system: Staphylococcus aureus CMCC 26074
[38] = test system: Bacillus subtilis KCTC 3068
[39] = test system: Escherichia coli KCTC 1682
[40] = test system: Pseudomonas aeruginosa KCTC 1637
[41] = test system: Salmonella typhimurium KCTC 1926
[42] = test system: Staphylococcus aureus KCTC 1621
[43] = test system: Staphylococcus epidermidis KCTC 1917

`C[C@H](NC(=O)[C@H](Cc1ccccc1)NC(=O)[C@@H](N)CCCCN)C(=O)N[C@@H](CCCCN)C(=O)O` [KFAK] was tested, and the MIC [1] was over 1010 µM, the MIC [2] was at least 1010 µM and the MIC [3] was at least 507 µM. It also gave an MIC [4] of at least 1010 µM and an MIC [5] of at least 1010 µM.

For `C[C@H](NC(=O)[C@H](CCCCN)NC(=O)[C@H](CCCCN)NC(=O)[C@H](CCCCN)NC(=O)[C@H](C)NC(=O)[C@H](CCCCN)NC(=O)[C@H](CCCCN)NC(=O)[C@H](CCCCN)NC(=O)[C@H](C)NC(=O)[C@H](CCCCN)NC(=O)[C@H](CCCCN)NC(=O)[C@H](CCCCN)NC(=O)[C@H](C)NC(=O)[C@H](CCCCN)NC(=O)[C@H](CCCCN)NC(=O)[C@H](CCCCN)NC(=O)[C@H](C)NC(=O)[C@H](CCCCN)NC(=O)[C@H](CCCCN)NC(=O)[C@H](CCCCN)NC(=O)[C@H](C)NC(=O)[C@H](CCCCN)NC(=O)[C@H](CCCCN)NC(=O)[C@H](CCCCN)NC(=O)[C@H](C)NC(=O)[C@H](CCCCN)NC(=O)[C@@H](N)CCCCN)C(=O)N[C@@H](CCCCN)C(=O)O` [KKAKKKAKKKAKKKAKKKAKKKAKKKAK], the MIC [1] was over 78 µM, the MIC [2] was 19.6 µM (≈ 63 µg/mL) and the MIC [3] was 13.7 µM (≈ 43.8 µg/mL). For the same compound, the MIC [4] was at least 39 µM.

For `CC(C)C[C@H](NC(=O)CNC(=O)[C@H](Cc1c[nH]c2ccccc12)NC(=O)CNC(=O)[C@H](CC(C)C)NC(=O)[C@H](CC(C)C)NC(=O)[C@H](CCCCN)NC(=O)[C@@H](N)CCCCN)C(=O)N[C@@H](CC(C)C)C(=O)N[C@@H](CCCCN)C(=O)N[C@@H](CCCCN)C(N)=O` [KKLLGWGLLKK], the MIC [6] was over 128 µM, the MIC (Escherichia coli K88) was at least 64 µM and the MIC [7] was at least 128 µM. It also gave an MIC [8] of at least 128 µM, an MIC [9] of at least 128 µM and an MIC [10] of at least 128 µM. The MIC [11] was at least 128 µM, the MIC [12] was over 128 µM and the MIC [13] was over 128 µM. For the same compound, the MIC [14] was at least 128 µM, the MIC [15] was at least 64 µM and the MIC [16] was over 128 µM. It also gave an MIC [17] of over 128 µM, an MIC [18] of over 128 µM and an MIC [19] of over 128 µM. For the same compound, the MIC [20] was at least 128 µM.

`CC[C@H](C)[C@H](NC(=O)[C@H](Cc1ccccc1)NC(=O)[C@H](CCCCN)NC(=O)[C@H](CCCCN)NC(=O)[C@H](Cc1c[nH]c2ccccc12)NC(=O)[C@@H](N)CCCCN)C(=O)N[C@@H](CCCCN)C(=O)N[C@@H](CCC(=O)O)C(=O)N[C@@H](CC(C)C)C(=O)N[C@@H](CCC(N)=O)C(=O)N[C@@H](CCCCN)C(=O)N[C@H](C(=O)N[C@@H](CC(C)C)C(=O)N[C@@H](C)C(=O)N1CCC[C@H]1C(=O)NCC(=O)NCC(=O)N[C@@H](CC(C)C)C(=O)N[C@@H](CC(C)C)C(=O)N[C@@H](CO)C(=O)N[C@@H](CC(N)=O)C(=O)N[C@H](C(=O)N[C@H](C(=O)N[C@H](C(=O)N[C@@H](CO)C(=O)N[C@@H](CC(C)C)C(=O)O)[C@@H](C)O)C(C)C)[C@@H](C)CC)C(C)C` [KWKKFIKELQKVLAPGGLLSNIVTSL] gave an MIC (Escherichia coli UB1005) of 1.72 µM (≈ 5 µg/mL) and an MIC [21] of 3.43 µM (≈ 10 µg/mL).

`CC(C)C[C@H](NC(=O)[C@@H](N)CC(C)C)C(=O)N[C@@H](CO)C(=O)N[C@@H](CCCN=C(N)N)C(=O)N[C@H](C(=O)O)C(C)C` [LLSRV] gave an MIC [22] of at least 218 µM, an MIC [23] of at least 218 µM and an MIC [24] of at least 218 µM. The MIC [25] was at least 218 µM, the MIC [26] was at least 218 µM and the MIC [27] was at least 218 µM. It also gave an MIC [6] of over 218 µM, an MIC [28] of at least 218 µM and an MIC [13] of over 218 µM. It also gave an MIC [29] of at least 218 µM and an MIC [17] of over 218 µM.

With `CC[C@H](C)[C@H](NC(=O)[C@H](CCCN=C(N)N)NC(=O)[C@H](CCCN=C(N)N)NC(=O)[C@H](CCCCN)NC(=O)[C@@H](N)CCCN=C(N)N)C(=O)N[C@H](C(=O)N[C@H](C(=O)N[C@H](C(=O)N[C@@H](CCCN=C(N)N)C(=O)N[C@@H](CCCN=C(N)N)C(=O)N[C@@H](CCCCN)C(=O)N[C@@H](CCCN=C(N)N)C(N)=O)[C@@H](C)CC)C(C)C)C(C)C` [RKRRIVVIRRKR] the MIC [30] was at least 128 µM, the MIC [31] was at least 256 µM and the MIC (Escherichia coli UB1005) was at least 256 µM. For the same compound, the MIC [32] was at least 32 µM, the MIC [33] was at least 256 µM and the MIC [15] was at least 256 µM. The MIC [34] was at least 256 µM, the MIC [16] was 128 µM (≈ 209 µg/mL) and the MIC [35] was at least 256 µM. For the same compound, the MIC [36] was over 256 µM and the MIC [37] was at least 256 µM.

In the case of `CC[C@H](C)[C@@H]1NC(=O)[C@H](CCCN=C(N)N)NC(=O)[C@@H](NC(=O)[C@H](CC(C)C)NC(=O)[C@@H](N)CCCN=C(N)N)CSSC[C@@H](C(=O)N[C@@H](CCCN=C(N)N)C(N)=O)NC(=O)[C@H](C(C)C)NC(=O)[C@H](CCCN=C(N)N)NC(=O)[C@H]([C@@H](C)CC)NC(=O)[C@H](C(C)C)NC(=O)[C@H](C(C)C)NC1=O` [RLCRIVVIRVCR], the MIC [30] is reported as at least 64 µM, the MIC [38] is reported as 4.21 µM (≈ 6.24 µg/mL) and the MIC [31] is reported as at least 256 µM. For the same compound, the MIC [39] was 8.41 µM (≈ 12.5 µg/mL), the MIC (Escherichia coli UB1005) was at least 128 µM and the MIC [32] was at least 128 µM. The MIC [40] was 16.8 µM (≈ 25 µg/mL), the MIC [33] was at least 128 µM and the MIC [15] was at least 256 µM. It also gave an MIC [34] of at least 64 µM, an MIC [16] of 128 µM (≈ 190 µg/mL) and an MIC [35] of at least 256 µM. The MIC [41] was 4.21 µM (≈ 6.24 µg/mL), the MIC [36] was over 256 µM and the MIC [37] was at least 256 µM. For the same compound, the MIC [42] was 4.21 µM (≈ 6.24 µg/mL) and the MIC [43] was 4.21 µM (≈ 6.24 µg/mL).
